According to ChEMBL document CHEMBL4219211, “Design and discovery of thioether and nicotinamide containing sorafenib analogues as multikinase inhibitors targeting B-Raf, B-RafV600E and VEGFR-2” (Bioorg Med Chem, 2018):

Biological target: Vascular endothelial growth factor receptor 2 (Homo sapiens, UniProt P35968)
Test: Inhibition of VEGFR2 (unknown origin) using FAM-labelled peptide as substrate pretreated for 10 mins followed by substrate addition measured after 30 mins by caliper mobility shift assay
Conditions: not given

Chain of Vascular endothelial growth factor receptor 2 (P35968 whole entry): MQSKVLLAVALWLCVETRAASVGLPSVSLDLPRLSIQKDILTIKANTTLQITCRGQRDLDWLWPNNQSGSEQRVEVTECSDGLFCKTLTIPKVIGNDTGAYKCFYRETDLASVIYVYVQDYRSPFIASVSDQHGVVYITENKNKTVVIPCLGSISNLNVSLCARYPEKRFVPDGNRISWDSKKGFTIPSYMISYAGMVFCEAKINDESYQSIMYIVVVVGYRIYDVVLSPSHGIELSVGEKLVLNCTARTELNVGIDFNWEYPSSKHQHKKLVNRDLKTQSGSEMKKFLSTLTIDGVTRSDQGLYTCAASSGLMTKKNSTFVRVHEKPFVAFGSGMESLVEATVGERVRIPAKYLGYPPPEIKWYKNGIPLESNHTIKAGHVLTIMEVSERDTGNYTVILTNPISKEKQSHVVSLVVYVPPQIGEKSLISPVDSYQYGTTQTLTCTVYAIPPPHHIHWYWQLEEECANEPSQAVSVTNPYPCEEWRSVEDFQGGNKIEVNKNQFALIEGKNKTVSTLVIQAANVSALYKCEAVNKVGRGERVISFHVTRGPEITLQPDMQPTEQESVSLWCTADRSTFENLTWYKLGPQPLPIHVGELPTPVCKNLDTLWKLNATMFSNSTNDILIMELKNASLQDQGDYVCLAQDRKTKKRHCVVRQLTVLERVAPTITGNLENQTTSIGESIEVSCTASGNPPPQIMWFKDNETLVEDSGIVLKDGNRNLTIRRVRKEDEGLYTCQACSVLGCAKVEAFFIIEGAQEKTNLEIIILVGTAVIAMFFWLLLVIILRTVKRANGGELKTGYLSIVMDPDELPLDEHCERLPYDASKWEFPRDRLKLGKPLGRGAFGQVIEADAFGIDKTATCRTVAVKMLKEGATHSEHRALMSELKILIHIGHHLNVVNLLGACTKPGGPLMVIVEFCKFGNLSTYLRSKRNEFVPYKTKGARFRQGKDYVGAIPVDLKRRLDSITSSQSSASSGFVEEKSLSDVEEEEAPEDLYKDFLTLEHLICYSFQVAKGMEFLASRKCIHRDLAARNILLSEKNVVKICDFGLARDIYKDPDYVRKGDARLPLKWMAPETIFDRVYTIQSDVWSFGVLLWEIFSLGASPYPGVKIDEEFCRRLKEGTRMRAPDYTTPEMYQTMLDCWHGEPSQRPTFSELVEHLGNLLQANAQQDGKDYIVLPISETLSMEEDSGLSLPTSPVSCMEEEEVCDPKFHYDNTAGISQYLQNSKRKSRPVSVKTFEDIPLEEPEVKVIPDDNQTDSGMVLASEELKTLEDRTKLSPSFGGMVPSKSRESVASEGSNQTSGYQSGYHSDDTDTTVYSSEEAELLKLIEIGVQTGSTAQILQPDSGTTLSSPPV

Compared with `CNC(=O)c1ccc(Sc2ccc(NC(=S)Nc3ccc(F)c(F)c3)cc2)nc1`, `CNC(=O)c1ccc(Sc2cccc(NC(=S)Nc3ccc(F)c(F)c3)c2)nc1` is lower in IC50: > 10 µM for the first, 3.86 µM for the second. The second is the more potent here.

First: CNC(=O)c1ccc(Sc2cccc(NC(=S)Nc3cccc(C(F)(F)F)c3)c2)nc1
Second: CNC(=O)c1ccc(Sc2ccc(NC(=S)Nc3cccc(C(F)(F)F)c3)cc2)nc1
The IC50 of the first is lower: 6.91 µM for the first, > 10 µM for the second. The first is the more potent here.

Going from `CNC(=O)c1ccc(Sc2cccc(NC(=S)Nc3ccc(OC(F)(F)F)cc3)c2)nc1` to `CNC(=O)c1ccc(Sc2cccc(NC(=S)Nc3ccc(F)c(C(F)(F)F)c3)c2)nc1`, the IC50 falls from > 10 µM to 0.061 µM.

Going from `CNC(=O)c1ccc(Sc2cccc(NC(=S)Nc3ccc(F)c(Cl)c3)c2)nc1` to `CNC(=O)c1ccc(Sc2cccc(NC(=S)Nc3ccc(Cl)c(C(F)(F)F)c3)c2)nc1`, the IC50 falls from 4.02 µM to 0.063 µM (64-fold).

Going from `CNC(=O)c1ccc(Sc2ccc(NC(=S)Nc3ccc(Cl)c(C(F)(F)F)c3)cc2)nc1` to `CNC(=O)c1ccc(Sc2ccc(NC(=S)Nc3cc(C(F)(F)F)cc(C(F)(F)F)c3)cc2)nc1`, the IC50 rises from 0.046 µM to 0.277 µM (6-fold).

System: HUVEC
Test: Antiangiogenic activity against HUVEC assessed as reduction in tube formation at 0.05 uM after 6 hrs by matrigel based phase contrast microscopic analysis
Assay type: functional, Homo sapiens
Parameters: scale not given: the % may be the effect or the level left
Conditions: not given

In order of rising Activity:
1. CNC(=O)c1ccc(Sc2ccc(NC(=S)Nc3ccc(Cl)c(C(F)(F)F)c3)cc2)nc1  100%
2. CNC(=O)c1ccc(Sc2cccc(NC(=S)Nc3ccc(Cl)c(C(F)(F)F)c3)c2)nc1  100%

System: B16-BL6
Test: cells
Conditions: Mus musculus, B16-BL6, 48 h
Description: Cytotoxicity against mouse B16-BL6 cells after 48 hrs by MTT assay

`CNC(=O)c1ccc(Sc2ccc(NC(=S)Nc3ccc(F)c(F)c3)cc2)nc1` and `CNC(=O)c1ccc(Sc2cccc(NC(=S)Nc3ccc(F)c(F)c3)c2)nc1` are within 1.5-fold of each other in IC50: 52.6 µM for the first, 58.2 µM for the second.

First: CNC(=O)c1ccc(Sc2cccc(NC(=S)Nc3cccc(C(F)(F)F)c3)c2)nc1
Second: CNC(=O)c1ccc(Sc2ccc(NC(=S)Nc3cccc(C(F)(F)F)c3)cc2)nc1
The IC50 of the first is 2.8-fold lower: 19.2 µM for the first, 53.1 µM for the second. The first is the more potent here.

Compared with `CNC(=O)c1ccc(Sc2cccc(NC(=S)Nc3ccc(OC(F)(F)F)cc3)c2)nc1`, `CNC(=O)c1ccc(Sc2cccc(NC(=S)Nc3ccc(F)c(C(F)(F)F)c3)c2)nc1` is 2.1-fold lower in IC50: 91 µM for the first, 42.4 µM for the second. The second is the more potent here.

First: CNC(=O)c1ccc(Sc2cccc(NC(=S)Nc3ccc(F)c(Cl)c3)c2)nc1
Second: CNC(=O)c1ccc(Sc2cccc(NC(=S)Nc3ccc(Cl)c(C(F)(F)F)c3)c2)nc1
The IC50 of the first is higher: > 100 µM for the first, 19.8 µM for the second.

Going from `CNC(=O)c1ccc(Sc2ccc(NC(=S)Nc3ccc(Cl)c(C(F)(F)F)c3)cc2)nc1` to `CNC(=O)c1ccc(Sc2ccc(NC(=S)Nc3cc(C(F)(F)F)cc(C(F)(F)F)c3)cc2)nc1`, the IC50 rises from 23.5 µM to 36.1 µM (1.5-fold).

Biological target: T1, Receptor-type tyrosine-protein kinase FLT3 (Homo sapiens, UniProt P36888)
T1 sequence (P36888 whole entry): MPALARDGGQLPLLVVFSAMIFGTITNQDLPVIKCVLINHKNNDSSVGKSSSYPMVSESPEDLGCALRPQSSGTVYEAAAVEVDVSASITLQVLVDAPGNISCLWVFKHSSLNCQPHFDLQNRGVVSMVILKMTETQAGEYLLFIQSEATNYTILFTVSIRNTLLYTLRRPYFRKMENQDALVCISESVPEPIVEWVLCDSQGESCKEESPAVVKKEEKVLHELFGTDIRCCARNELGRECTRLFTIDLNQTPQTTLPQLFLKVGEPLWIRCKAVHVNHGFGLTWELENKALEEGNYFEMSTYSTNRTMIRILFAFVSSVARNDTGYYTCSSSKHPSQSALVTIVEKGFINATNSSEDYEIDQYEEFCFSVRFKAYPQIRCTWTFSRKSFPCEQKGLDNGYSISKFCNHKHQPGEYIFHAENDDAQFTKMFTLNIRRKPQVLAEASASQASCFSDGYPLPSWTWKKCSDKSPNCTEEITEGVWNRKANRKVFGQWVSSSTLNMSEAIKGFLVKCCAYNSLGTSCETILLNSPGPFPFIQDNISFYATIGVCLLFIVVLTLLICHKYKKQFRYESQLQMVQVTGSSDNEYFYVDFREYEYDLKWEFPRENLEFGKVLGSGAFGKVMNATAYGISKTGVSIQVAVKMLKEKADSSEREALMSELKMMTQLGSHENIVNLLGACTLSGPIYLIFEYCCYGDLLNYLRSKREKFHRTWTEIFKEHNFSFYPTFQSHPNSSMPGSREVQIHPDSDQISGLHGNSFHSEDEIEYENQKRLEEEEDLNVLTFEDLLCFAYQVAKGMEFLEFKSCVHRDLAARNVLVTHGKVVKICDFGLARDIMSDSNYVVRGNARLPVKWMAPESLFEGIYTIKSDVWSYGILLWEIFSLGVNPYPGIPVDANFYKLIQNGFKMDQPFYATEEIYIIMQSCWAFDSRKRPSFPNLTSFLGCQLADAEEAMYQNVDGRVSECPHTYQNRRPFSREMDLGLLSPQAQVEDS
Test: Inhibition of FLT3 (unknown origin)
Conditions: not given

In order of falling IC50:
1. CNC(=O)c1ccc(Sc2ccc(NC(=S)Nc3ccc(Cl)c(C(F)(F)F)c3)cc2)nc1  0.949 µM
2. CNC(=O)c1ccc(Sc2cccc(NC(=S)Nc3ccc(Cl)c(C(F)(F)F)c3)c2)nc1  0.781 µM

Biological target: Serine/threonine-protein kinase B-raf (Homo sapiens, UniProt P15056, V600E)
Test: Inhibition of B-Raf V600E mutant (unknown origin) using MEK1 as substrate measured after 2 hrs by ELISA
Conditions: not given

Chain of Serine/threonine-protein kinase B-raf (Homo sapiens, UniProt P15056, V600E) (P15056 2-766 V600E limits assumed): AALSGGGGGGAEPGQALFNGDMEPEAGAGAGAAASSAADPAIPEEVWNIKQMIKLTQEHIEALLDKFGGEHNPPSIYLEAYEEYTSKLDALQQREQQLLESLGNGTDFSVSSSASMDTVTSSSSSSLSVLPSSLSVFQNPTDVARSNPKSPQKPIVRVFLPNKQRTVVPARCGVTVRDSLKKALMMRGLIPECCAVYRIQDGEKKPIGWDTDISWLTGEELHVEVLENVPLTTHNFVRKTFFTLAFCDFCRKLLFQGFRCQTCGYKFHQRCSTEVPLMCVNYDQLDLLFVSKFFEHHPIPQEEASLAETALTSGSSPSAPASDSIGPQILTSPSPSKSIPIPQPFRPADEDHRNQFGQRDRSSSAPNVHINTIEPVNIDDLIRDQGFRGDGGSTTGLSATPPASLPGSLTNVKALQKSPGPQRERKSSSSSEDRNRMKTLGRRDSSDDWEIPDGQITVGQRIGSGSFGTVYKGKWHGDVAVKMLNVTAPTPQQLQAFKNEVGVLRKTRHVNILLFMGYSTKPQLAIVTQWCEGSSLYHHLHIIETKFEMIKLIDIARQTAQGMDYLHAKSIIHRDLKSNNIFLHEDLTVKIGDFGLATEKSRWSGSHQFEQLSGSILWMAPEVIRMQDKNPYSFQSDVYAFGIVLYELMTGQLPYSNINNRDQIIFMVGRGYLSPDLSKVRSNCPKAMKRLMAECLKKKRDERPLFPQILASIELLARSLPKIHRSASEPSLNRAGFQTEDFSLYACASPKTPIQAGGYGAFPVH

In order of falling IC50:
1. CNC(=O)c1ccc(Sc2cccc(NC(=S)Nc3ccc(OC(F)(F)F)cc3)c2)nc1  7.48 µM
2. CNC(=O)c1ccc(Sc2cccc(NC(=S)Nc3cccc(C(F)(F)F)c3)c2)nc1  1.27 µM
3. CNC(=O)c1ccc(Sc2ccc(NC(=S)Nc3ccc(F)c(F)c3)cc2)nc1  0.892 µM
4. CNC(=O)c1ccc(Sc2ccc(NC(=S)Nc3cccc(C(F)(F)F)c3)cc2)nc1  0.571 µM
5. CNC(=O)c1ccc(Sc2cccc(NC(=S)Nc3ccc(F)c(F)c3)c2)nc1  0.539 µM
6. CNC(=O)c1ccc(Sc2cccc(NC(=S)Nc3ccc(F)c(Cl)c3)c2)nc1  0.392 µM
7. CNC(=O)c1ccc(Sc2cccc(NC(=S)Nc3ccc(F)c(C(F)(F)F)c3)c2)nc1  0.077 µM
8. CNC(=O)c1ccc(Sc2ccc(NC(=S)Nc3ccc(Cl)c(C(F)(F)F)c3)cc2)nc1  0.028 µM
9. CNC(=O)c1ccc(Sc2cccc(NC(=S)Nc3ccc(Cl)c(C(F)(F)F)c3)c2)nc1  0.016 µM

Biological target: Mast/stem cell growth factor receptor Kit (Homo sapiens, UniProt P10721)
Test: Inhibition of c-KIT (unknown origin)
Conditions: not given

Chain of Mast/stem cell growth factor receptor Kit (P10721 whole entry): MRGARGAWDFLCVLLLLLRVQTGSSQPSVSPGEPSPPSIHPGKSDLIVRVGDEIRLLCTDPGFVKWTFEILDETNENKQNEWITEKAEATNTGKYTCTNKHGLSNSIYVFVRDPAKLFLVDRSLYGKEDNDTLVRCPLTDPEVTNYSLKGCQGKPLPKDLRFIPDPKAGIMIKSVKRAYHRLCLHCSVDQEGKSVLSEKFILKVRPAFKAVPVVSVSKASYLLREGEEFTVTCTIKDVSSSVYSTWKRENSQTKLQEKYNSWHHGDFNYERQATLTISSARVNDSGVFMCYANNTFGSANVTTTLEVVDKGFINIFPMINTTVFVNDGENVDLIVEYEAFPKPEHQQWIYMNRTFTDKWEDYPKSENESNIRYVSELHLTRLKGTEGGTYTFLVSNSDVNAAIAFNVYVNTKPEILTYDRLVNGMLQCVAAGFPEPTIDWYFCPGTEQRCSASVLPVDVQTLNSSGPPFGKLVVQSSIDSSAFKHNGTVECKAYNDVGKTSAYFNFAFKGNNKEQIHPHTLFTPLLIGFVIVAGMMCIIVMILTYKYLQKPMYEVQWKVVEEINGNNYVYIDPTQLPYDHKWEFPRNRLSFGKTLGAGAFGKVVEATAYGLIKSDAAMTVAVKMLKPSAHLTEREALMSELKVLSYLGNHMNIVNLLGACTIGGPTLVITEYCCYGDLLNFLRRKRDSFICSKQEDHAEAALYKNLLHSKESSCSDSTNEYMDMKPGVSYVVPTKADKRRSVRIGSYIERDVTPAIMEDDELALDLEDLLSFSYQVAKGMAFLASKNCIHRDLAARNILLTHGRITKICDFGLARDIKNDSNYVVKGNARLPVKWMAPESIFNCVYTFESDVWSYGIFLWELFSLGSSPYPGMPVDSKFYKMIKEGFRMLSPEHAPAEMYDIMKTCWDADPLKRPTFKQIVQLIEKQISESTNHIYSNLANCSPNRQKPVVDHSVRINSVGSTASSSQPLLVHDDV

First: CNC(=O)c1ccc(Sc2ccc(NC(=S)Nc3ccc(Cl)c(C(F)(F)F)c3)cc2)nc1
Second: CNC(=O)c1ccc(Sc2cccc(NC(=S)Nc3ccc(Cl)c(C(F)(F)F)c3)c2)nc1
The IC50 of the first is lower: 0.701 µM for the first, > 1 µM for the second. The first is the more potent here.

Biological target: Epidermal growth factor receptor (Homo sapiens, UniProt P00533)
Test: Inhibition of EGFR (unknown origin)
Conditions: not given

Chain of Epidermal growth factor receptor (P00533 whole entry): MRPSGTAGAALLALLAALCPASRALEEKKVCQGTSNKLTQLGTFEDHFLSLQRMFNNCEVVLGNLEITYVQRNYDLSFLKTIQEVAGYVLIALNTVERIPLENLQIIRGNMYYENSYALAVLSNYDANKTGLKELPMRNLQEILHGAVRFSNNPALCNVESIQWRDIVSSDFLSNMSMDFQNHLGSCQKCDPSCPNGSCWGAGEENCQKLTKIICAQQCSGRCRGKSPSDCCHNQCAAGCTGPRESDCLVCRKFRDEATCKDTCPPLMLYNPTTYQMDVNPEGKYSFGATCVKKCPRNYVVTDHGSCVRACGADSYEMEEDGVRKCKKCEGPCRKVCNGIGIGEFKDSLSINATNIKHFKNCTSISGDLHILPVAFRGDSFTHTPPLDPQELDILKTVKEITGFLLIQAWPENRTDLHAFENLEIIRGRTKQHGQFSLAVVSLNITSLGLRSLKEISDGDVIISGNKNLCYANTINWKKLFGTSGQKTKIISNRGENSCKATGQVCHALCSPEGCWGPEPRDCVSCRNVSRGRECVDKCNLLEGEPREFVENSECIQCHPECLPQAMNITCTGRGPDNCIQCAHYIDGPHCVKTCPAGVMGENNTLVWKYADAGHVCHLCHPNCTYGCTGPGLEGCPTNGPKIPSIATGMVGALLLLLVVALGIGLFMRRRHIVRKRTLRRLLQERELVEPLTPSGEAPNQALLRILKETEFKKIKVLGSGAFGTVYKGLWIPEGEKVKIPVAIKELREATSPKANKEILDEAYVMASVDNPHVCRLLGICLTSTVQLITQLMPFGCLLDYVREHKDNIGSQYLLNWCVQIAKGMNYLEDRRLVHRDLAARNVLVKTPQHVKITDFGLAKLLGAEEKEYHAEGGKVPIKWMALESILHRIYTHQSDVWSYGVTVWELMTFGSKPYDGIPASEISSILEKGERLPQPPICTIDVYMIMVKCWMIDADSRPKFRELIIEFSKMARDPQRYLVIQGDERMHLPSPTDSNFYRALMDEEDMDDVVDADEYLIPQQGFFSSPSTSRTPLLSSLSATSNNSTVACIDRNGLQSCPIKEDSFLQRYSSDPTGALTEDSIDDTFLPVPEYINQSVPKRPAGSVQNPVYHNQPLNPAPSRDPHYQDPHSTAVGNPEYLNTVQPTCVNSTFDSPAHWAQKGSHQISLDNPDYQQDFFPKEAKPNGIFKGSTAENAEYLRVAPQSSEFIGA

Compared with `CNC(=O)c1ccc(Sc2ccc(NC(=S)Nc3ccc(Cl)c(C(F)(F)F)c3)cc2)nc1`, `CNC(=O)c1ccc(Sc2cccc(NC(=S)Nc3ccc(Cl)c(C(F)(F)F)c3)c2)nc1` is lower in IC50: > 1 µM for the first, 0.596 µM for the second. The second is the more potent here.

System: HCT-116
Test: cells
Conditions: Homo sapiens, HCT-116, 48 h
Description: Cytotoxicity against human HCT116 cells after 48 hrs by MTT assay

In order of rising IC50:
1. CNC(=O)c1ccc(Sc2ccc(NC(=S)Nc3ccc(Cl)c(C(F)(F)F)c3)cc2)nc1  4.9 µM
2. CNC(=O)c1ccc(Sc2cccc(NC(=S)Nc3ccc(Cl)c(C(F)(F)F)c3)c2)nc1  5.18 µM
3. CNC(=O)c1ccc(Sc2cccc(NC(=S)Nc3cccc(C(F)(F)F)c3)c2)nc1  16.1 µM
4. CNC(=O)c1ccc(Sc2ccc(NC(=S)Nc3cc(C(F)(F)F)cc(C(F)(F)F)c3)cc2)nc1  16.6 µM
5. CNC(=O)c1ccc(Sc2cccc(NC(=S)Nc3ccc(F)c(Cl)c3)c2)nc1  17.3 µM
6. CNC(=O)c1ccc(Sc2cccc(NC(=S)Nc3ccc(F)c(C(F)(F)F)c3)c2)nc1  18.2 µM
7. CNC(=O)c1ccc(Sc2ccc(NC(=S)Nc3ccc(F)c(F)c3)cc2)nc1  22.2 µM
8. CNC(=O)c1ccc(Sc2cccc(NC(=S)Nc3ccc(OC(F)(F)F)cc3)c2)nc1  24.5 µM
9. CNC(=O)c1ccc(Sc2ccc(NC(=S)Nc3cccc(C(F)(F)F)c3)cc2)nc1  25.9 µM
10. CNC(=O)c1ccc(Sc2cccc(NC(=S)Nc3ccc(F)c(F)c3)c2)nc1  35.1 µM

Biological target: Serine/threonine-protein kinase B-raf (Homo sapiens, UniProt P15056)
Test: Inhibition of B-Raf (unknown origin) using MEK1 as substrate measured after 2 hrs by ELISA
Conditions: not given

Chain of Serine/threonine-protein kinase B-raf (Homo sapiens, UniProt P15056) (P15056 whole entry): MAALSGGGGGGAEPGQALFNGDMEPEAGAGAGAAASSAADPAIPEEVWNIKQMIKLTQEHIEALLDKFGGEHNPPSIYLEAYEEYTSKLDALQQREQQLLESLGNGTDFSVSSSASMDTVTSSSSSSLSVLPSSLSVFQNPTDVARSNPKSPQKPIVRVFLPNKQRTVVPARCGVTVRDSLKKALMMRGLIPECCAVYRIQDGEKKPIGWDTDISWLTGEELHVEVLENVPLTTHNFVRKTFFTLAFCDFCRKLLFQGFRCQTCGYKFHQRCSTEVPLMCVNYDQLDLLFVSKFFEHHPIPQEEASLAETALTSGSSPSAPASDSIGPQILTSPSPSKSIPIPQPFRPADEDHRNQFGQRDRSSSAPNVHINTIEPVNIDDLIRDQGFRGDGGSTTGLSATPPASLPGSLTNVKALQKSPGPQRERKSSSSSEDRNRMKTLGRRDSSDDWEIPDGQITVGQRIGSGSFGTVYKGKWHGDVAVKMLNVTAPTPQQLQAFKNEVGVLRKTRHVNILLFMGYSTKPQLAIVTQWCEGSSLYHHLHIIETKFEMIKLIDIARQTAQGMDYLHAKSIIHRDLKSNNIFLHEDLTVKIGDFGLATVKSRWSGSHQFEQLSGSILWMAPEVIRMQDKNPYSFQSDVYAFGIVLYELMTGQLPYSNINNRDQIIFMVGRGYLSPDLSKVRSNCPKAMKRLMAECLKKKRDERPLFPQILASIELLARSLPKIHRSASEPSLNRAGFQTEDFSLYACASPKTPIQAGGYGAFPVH

In order of falling IC50:
1. CNC(=O)c1ccc(Sc2cccc(NC(=S)Nc3ccc(OC(F)(F)F)cc3)c2)nc1  5.85 µM
2. CNC(=O)c1ccc(Sc2cccc(NC(=S)Nc3cccc(C(F)(F)F)c3)c2)nc1  0.973 µM
3. CNC(=O)c1ccc(Sc2ccc(NC(=S)Nc3ccc(F)c(F)c3)cc2)nc1  0.81 µM
4. CNC(=O)c1ccc(Sc2ccc(NC(=S)Nc3cccc(C(F)(F)F)c3)cc2)nc1  0.503 µM
5. CNC(=O)c1ccc(Sc2cccc(NC(=S)Nc3ccc(F)c(F)c3)c2)nc1  0.442 µM
6. CNC(=O)c1ccc(Sc2cccc(NC(=S)Nc3ccc(F)c(Cl)c3)c2)nc1  0.28 µM
7. CNC(=O)c1ccc(Sc2cccc(NC(=S)Nc3ccc(F)c(C(F)(F)F)c3)c2)nc1  0.069 µM
8. CNC(=O)c1ccc(Sc2ccc(NC(=S)Nc3ccc(Cl)c(C(F)(F)F)c3)cc2)nc1  0.027 µM
9. CNC(=O)c1ccc(Sc2cccc(NC(=S)Nc3ccc(Cl)c(C(F)(F)F)c3)c2)nc1  0.017 µM
